Reference: patent US20090197957A1, “Methods and compositions for the treatment of pain” (Nuon Therapeutics, Inc., priority 2005, published 2009)

Columns and labels:
[1] = tested on: mechanical and thermal allodynia in CIA; experiment: Allodynia assessment in arthritic mice (Plantar Von-Frey, Hargreaves test); assay type: in vivo
Experimental: FIG. 6 is an image depicting that 3,4-DAA inhibits mechanical and thermal allodynia, and inhibits astrocytic activation in arthritic mice. Mechanical (a) and thermal (b) allodynia, and paw swelling (c) and clinical score (d) were assessed in naïve mice on the day of arthritis onset, and up to 10 days following therapy with 200 mg/kg 3,4-DAA, […] dexamethasone, or vehicle. […] Whilst 3,4-DAA therapy reduced astrocytic activation (bottom right panel) dexamethasone had no action on GFAP levels (bottom left panel). Quantification of the number of hyper-plastic astrocytes in the spinal cord 10 days following onset of arthritis was performed (f).
The pain thresholds of the mice were assessed prior to immunization (naïve) on day of onset (day 0) and up to 10 days following therapy with 3,4-DAA (200 mg/kg/day), dexamethasone (0.5 mg/kg/2 days) or vehicle alone (n=9 per group). The Ugo Basile 37400 Plantar Von-Frey microprocessor controlled unit was used to assess mechanical hyperalgesia and Ugo Basile 7370-6 Plantar Test (Hargreaves test) was used to assess thermal hyperalgesia. Mechanical hyperalgesia was assessed by applying an increasing force to the hind paw at the rate of 3 g/second, and measuring the force required to elicit lifting of the paw. Thermal hyperalgesia was assessed by applying an increasing infrared source (intensity 50), and measuring the time required for lifting of the paw.

[2] = tested on: collagen-induced arthritis (CIA); experiment: Development of collagen-induced arthritis (treatment from day of immunisation); assay type: in vivo, DBA/1 mice; details: 200 mg/kg/day from the day of immunisation
Experimental: Type II collagen was purified from bovine cartilage, as described [Williams 2004, Methods Mol. Med. 98:207-216] and solubilized by stirring overnight at 4° C. in acetic acid (0.1M) or Tris buffer (0.05 M Tris, containing 0.2 M NaCl, pH 7.4). 3,4-DAA was synthesised by Angiogen Pharmaceuticals Pty. Ltd. For in vivo studies 3,4-DAA was dissolved at a maximum concentration of 10 mg/ml in 1% sodium bicarbonate by heating for 1 h at 70° C. Upon cooling, an emulsion was formed. For in vitro studies 3,4-DAA was dissolved in dimethyl sulphoxide (DMSO). 3-Hydroxy-anthranilic acid (3-HAA) was purchased from Sigma (Poole, UK) and dissolved in PBS.
Male DBA/1 mice (8-12 weeks old) were immunized intradermally at the base of the tail with bovine type II collagen (200 μg) emulsified in complete Freund's adjuvant (CFA; Difco, West Molesley, UK). Arthritis was monitored clinically using the following scoring system: 0=normal, 1=slight swelling and/or erythema, and 2=pronounced oedematous swelling. Each limb was graded, giving a maximum score of 8 per mouse. In addition, paw-swelling was measured using callipers.
In order to assess its anti-arthritic potential, 3,4-DAA was injected into DBA/1 mice (200 mg/kg/day) from the day of immunisation with type II collagen in CFA. […]

[3] = molecular target: T1, Cyclooxygenase COX-2 (Homo sapiens, UniProt P35354); experiment: 118010 Cyclooxygenase COX-2 biochemical assay (EIA quantitation of PGE2)
T1 construct: host or cells: insect Sf21
T1 sequence (P35354 18-604): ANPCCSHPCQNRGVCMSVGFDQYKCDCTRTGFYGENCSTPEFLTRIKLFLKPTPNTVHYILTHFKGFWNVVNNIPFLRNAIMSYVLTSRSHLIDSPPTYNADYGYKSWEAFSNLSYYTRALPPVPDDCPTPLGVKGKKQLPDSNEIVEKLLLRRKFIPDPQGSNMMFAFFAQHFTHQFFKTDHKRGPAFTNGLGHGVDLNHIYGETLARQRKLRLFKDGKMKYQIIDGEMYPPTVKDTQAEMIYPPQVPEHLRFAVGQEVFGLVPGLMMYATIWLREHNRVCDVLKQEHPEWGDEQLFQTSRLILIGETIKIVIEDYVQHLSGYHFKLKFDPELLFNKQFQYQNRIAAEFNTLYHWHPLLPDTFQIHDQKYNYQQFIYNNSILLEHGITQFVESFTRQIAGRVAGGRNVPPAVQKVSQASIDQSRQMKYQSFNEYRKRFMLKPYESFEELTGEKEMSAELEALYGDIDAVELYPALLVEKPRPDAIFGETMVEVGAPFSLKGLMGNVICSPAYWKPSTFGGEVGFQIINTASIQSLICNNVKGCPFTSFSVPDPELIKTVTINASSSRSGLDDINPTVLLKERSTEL
Experimental: Methods employed in this study have been adapted from the scientific literature to maximize reliability and reproducibility. […] Assays were performed under conditions described in the accompanying “Methods” section of this report. The literature references for each assay are in the “Literature References” section. If either of these sections were not originally requested with the accompanying report, please contact us at the number below for a printout of either of these report sections.
Biochemical assay results are presented as the percent inhibition of specific binding or activity throughout the report.

[4] = established arthritis, up to 10 days therapy, 3,4-DAA 200 mg/kg/day, dexamethasone 0.5 mg/kg/2 days

Row | effect on the activity of the COX-2 enzyme [3] | inhibition at 10 µM ([3]; 10 μM, n=2) [%] | SMILES | action on allodynia in CIA ([1]; administered therapeutically at doses of up to 400 mg/kg/day) | mechanical allodynia [1, 4] | thermal allodynia [1, 4] | clinical score of arthritis by day 28 [2] | mice that had developed arthritis by day 28 ([2]; 7 mice) [%]
1 |  |  | Nc1c(O)cccc1C(=O)O [3-Hydroxyanthranilic acid] | no action |  |  |  | 
2 | no effect | 0 | COc1ccc(/C=C/C(=O)Nc2ccccc2C(=O)O)cc1OC [Tranilast, 2-[[3-(3,4-dimethoxyphenyl)-1-oxo-2-propenyl]amino]benzoic acid] |  | abolished | abolished | 1 | 14
